# Laboratory results published in US8101768B2, “Cyclic amine compound and pest control agent” (Nippon Soda Co., Ltd., priority 2004, dated 2012).
# System: organophosphorous agent resistant two-spotted spider mites
# Experiment: Effect on Two-spotted Spider Mite (spray on kidney bean leaves)
# Type: in vivo
# Conditions: 125 ppm, water dispersible powder of Formulation Example 1 sprayed, 17 female adults, 25° C., 65% humidity, 3 days
# Description: Effect on Two-spotted Spider Mite
# 17 female adults of organophosphorous agent resistant two-spotted spider mites were inoculated onto the first leaves of kidney beans seeded onto 3.5 inch pots and germinated 7 to 10 days before, onto which each of liquid agents, diluted with water so as to adjust the respective concentration of the chemical compounds to 125 ppm according to the formulation of the water dispersible powder shown in the aforementioned Formulation Example 1, was sprayed. After they were left in a thermostatic chamber at 25° C. in 65% humidity for 3 days, the rate of killed adults was investigated. The examination was repeated twice. As the results, the following chemical compounds killed 100% of the adults.
row,Compound,rate of killed adults [%]
1,CC=CCOc1cc(C(F)(F)F)ccc1OC1CC2CCC(C1)N2c1ccc(C(F)(F)F)cn1 (mixture of isomers) [2-145],100
2,FC(F)(F)c1ccc(N2C3CCC2CC(Oc2ccc(C(F)(F)F)cc2OCC=CCl)C3)nc1 (mixture of isomers) [2-148],100
3,CC=NOc1cc(C(F)(F)F)ccc1OC1CC2CCC(C1)N2c1ccc(C(F)(F)F)cn1 (mixture of isomers) [2-213],100
4,CCC(C)=NOc1cc(C(F)(F)F)ccc1OC1CC2CCC(C1)N2c1ccc(C(F)(F)F)cn1 (mixture of isomers) [2-226],100
5,FC(F)(F)c1ccc(N2CCC(Oc3ccc(Cl)cc3)CC2)nc1 [1-10],100
6,FC(F)(F)c1ccc(N2CCC(Oc3c(Cl)cc(C(F)(F)F)cc3Cl)CC2)nc1 [1-16],100
7,CCCOc1cc(C(F)(F)F)cc(Cl)c1OC1CCN(c2ccc(C(F)(F)F)cn2)CC1 [1-18],100
8,FC(F)(F)c1ccc(N2CCC(Oc3ccc(Br)cc3)CC2)nc1 [1-19],100
9,N#Cc1ccc(OC2CCN(c3ccc(C(F)(F)F)cn3)CC2)cc1 [1-29],100
10,Cc1ccc(OC2CCN(c3ccc(C(F)(F)F)cn3)CC2)c(C)c1 [1-44],100
11,Cc1cc(C)c(OC2CCN(c3ccc(C(F)(F)F)cn3)CC2)c(C)c1 [1-47],100
12,Cc1cc(F)ccc1OC1CCN(c2ccc(C(F)(F)F)cn2)CC1 [1-48],100
13,Cc1cc(Cl)ccc1OC1CCN(c2ccc(C(F)(F)F)cn2)CC1 [1-49],100
14,CCCc1cc(Cl)ccc1OC1CCN(c2ccc(C(F)(F)F)cn2)CC1 [1-57],100
15,CCC(O)c1cc(C(F)(F)F)ccc1OC1CCN(c2ccc(C(F)(F)F)cn2)CC1 (centres unmarked) [1-67],100
16,CC=Cc1cc(C(F)(F)F)ccc1OC1CCN(c2ccc(C(F)(F)F)cn2)CC1 [1-73],100
17,FC(F)(F)c1ccc(N2CCC(Oc3cccc(C(F)(F)F)c3)CC2)nc1 [1-76],100
18,FC(F)(F)c1ccc(N2CCC(Oc3ccc(C(F)(F)F)cc3CCl)CC2)nc1 [1-81],100
19,CCC(Cl)c1cc(C(F)(F)F)ccc1OC1CCN(c2ccc(C(F)(F)F)cn2)CC1 (centres unmarked) [1-82],100
20,CCOc1cc(C(F)(F)F)ccc1OC1CCN(c2ccc(Cl)cn2)CC1 [1-90],100
21,CCOc1cc(C(F)(F)F)ccc1OC1CCN(c2ccc(Br)cn2)CC1 [1-91],100
22,CCCCOc1cc(C(F)(F)F)ccc1OC1CCN(c2ccc(C(F)(F)F)cn2)CC1 [1-101],100
23,COCCOc1cc(C(F)(F)F)ccc1OC1CCN(c2ccc(C(F)(F)F)cn2)CC1 [1-115],100

row,Compound,rate of killed adults [%]
1,COCOCCOc1cc(C(F)(F)F)ccc1OC1CCN(c2ccc(C(F)(F)F)cn2)CC1 [1-117],100
2,OCCOc1cc(C(F)(F)F)ccc1OC1CCN(c2ccc(C(F)(F)F)cn2)CC1 [1-118],100
3,FC(F)(F)c1ccc(N2CCC(Oc3ccc(C(F)(F)F)cc3OCCBr)CC2)nc1 [1-139],100
4,C=C=COc1cc(C(F)(F)F)ccc1OC1CCN(c2ccc(C(F)(F)F)cn2)CC1 [1-143],100
5,[O-][S+](c1ccc(OC2CCN(c3ccc(C(F)(F)F)cn3)CC2)cc1)C(F)(F)F (centres unmarked) [1-150],100
6,C#CCOc1cc(C(F)(F)F)ccc1OC1CCN(c2ccc(C(F)(F)F)cn2)CC1 [1-163],100
7,CCNc1cc(C(F)(F)F)ccc1OC1CCN(c2ccc(C(F)(F)F)cn2)CC1 [1-172],100
8,CCCNc1cc(C(F)(F)F)ccc1OC1CCN(c2ccc(C(F)(F)F)cn2)CC1 [1-173],100
9,CCCN(CCC)c1cc(C(F)(F)F)ccc1OC1CCN(c2ccc(C(F)(F)F)cn2)CC1 [1-174],100
10,CCC(=O)c1cc(C(F)(F)F)ccc1OC1CCN(c2ccc(C(F)(F)F)cn2)CC1 [1-179],100
11,FC(F)(F)c1ccc(N2CCC(Oc3ccc(C(F)(F)F)cc3COC3CCCO3)CC2)nc1 (centres unmarked) [1-180],100
12,CCCOc1cc(C(F)(F)F)ccc1OC1CCN(c2ccc(C(F)(F)F)cn2)CC1CCC (centres unmarked) [1-192],100
13,"COc1cc(C(F)(F)F)ccc1OC1CC2CCC(C1)N2c1ccc(C(F)(F)F)cn1 (stereo not drawn) [2-77, 3α-[2-methoxy-4-(trifluoromethyl)phenoxy]-8-[5-(trifluoromethyl)-2-pyridyl]-8-azabicyclo[3.2.1]octane]",100
14,CCOc1cc(C(F)(F)F)ccc1OC1CC2CCC(C1)N2c1ccc(C(F)(F)F)cn1 (centres unmarked) [2-78],100
15,CCCOc1cc(C#N)ccc1OC1CC2CCC(C1)N2c1ccc(C(F)(F)F)cn1 (centres unmarked) [2-81],100
16,"CCCOc1cc(C(F)(F)F)ccc1O[C@H]1C[C@H]2CC[C@@H](C1)N2c1ccc(C(F)(F)F)cn1 [2-82, 3α-[2-propoxy-4-(trifluoromethyl)phenoxy]-8-[5-(trifluoromethyl)-2-pyridyl]-8-azabicyclo[3.2.1]octane]",100
17,"CCCOc1cc(C(F)(F)F)ccc1OC1CC2CCC(C1)N2c1ccc(C(F)(F)F)c[n+]1[O-] (stereo not drawn) [2-83, 3α-[2-propoxy-4-(trifluoromethyl)phenoxy]-8-[5-(trifluoromethyl)-2-pyridyl-1-oxy]-8-azabicyclo[3.2.1]octane]",100
18,"CCCOc1cc(C(F)(F)F)ccc1OC1CC2CCC(C1)[N+]2([O-])c1ccc(C(F)(F)F)cn1 (stereo not drawn) [2-84, 3α-[2-propoxy-4-(trifluoromethyl)phenoxy]-8-oxy-8-[5-(trifluoromethyl)-2-pyridyl]-8-azabicyclo[3.2.1]octane]",100
19,CCCOc1cc(C(F)(F)F)ccc1OC1CC2CCC(C1)N2c1ccc(Cl)cn1 (centres unmarked) [2-85],100
20,CCCOc1cc(C(F)(F)F)ccc1OC1CC2CCC(C1)N2c1ccc(Br)cn1 (centres unmarked) [2-86],100
21,CCCOc1cc(C(F)(F)F)ccc1OC1CC2CCC(C1)N2c1ccc(C)cn1 (centres unmarked) [2-89],100
22,CCCOc1cc(C(F)(F)F)ccc1OC1CC2CCC(C1)N2c1ccc(C#N)cn1 (centres unmarked) [2-93],100
23,CCCOc1cc(C(F)(F)F)cc(Cl)c1OC1CC2CCC(C1)N2c1ccc(C(F)(F)F)cn1 (centres unmarked) [2-95],100

row,Compound,rate of killed adults [%]
1,CC(C)Oc1cc(C(F)(F)F)ccc1OC1CC2CCC(C1)N2c1ccc(C(F)(F)F)cn1 (centres unmarked) [2-96],100
2,CCCCOc1cc(C(F)(F)F)ccc1OC1CC2CCC(C1)N2c1ccc(C(F)(F)F)cn1 (centres unmarked) [2-97],100
3,CC(C)COc1cc(C(F)(F)F)ccc1OC1CC2CCC(C1)N2c1ccc(C(F)(F)F)cn1 (centres unmarked) [2-98],100
4,CCCCCOc1cc(C(F)(F)F)ccc1OC1CC2CCC(C1)N2c1ccc(C(F)(F)F)cn1 (centres unmarked) [2-100],100
5,"COCOc1cc(C(F)(F)F)ccc1OC1CC2CCC(C1)N2c1ccc(C(F)(F)F)cn1 (stereo not drawn) [2-102, 3α-[2-methoxymethoxy-4-(trifluoromethyl)phenoxy]-8-[5-(trifluoromethyl)-2-pyridyl]-8-azabicyclo[3.2.1]octane]",100
6,FC(F)(F)c1ccc(N2C3CCC2CC(Oc2ccc(C(F)(F)F)cc2OCC2CC2)C3)nc1 (centres unmarked) [2-105],100
7,CC(C)(C)COc1cc(C(F)(F)F)ccc1OC1CC2CCC(C1)N2c1ccc(C(F)(F)F)cn1 (centres unmarked) [2-111],100
8,COCCOc1cc(C(F)(F)F)ccc1OC1CC2CCC(C1)N2c1ccc(C(F)(F)F)cn1 (centres unmarked) [2-112],100
9,OCCOc1cc(C(F)(F)F)ccc1OC1CC2CCC(C1)N2c1ccc(C(F)(F)F)cn1 (centres unmarked) [2-115],100
10,COC(C)COc1cc(C(F)(F)F)ccc1OC1CC2CCC(C1)N2c1ccc(C(F)(F)F)cn1 (centres unmarked) [2-130],100
11,FC(F)(F)c1ccc(N2C3CCC2CC(Oc2ccc(C(F)(F)F)cc2OCCCl)C3)nc1 (centres unmarked) [2-138],100
12,C=CCOc1cc(C(F)(F)F)ccc1OC1CC2CCC(C1)N2c1ccc(C(F)(F)F)cn1 (centres unmarked) [2-141],100
13,C#CCOc1cc(C(F)(F)F)ccc1OC1CC2CCC(C1)N2c1ccc(C(F)(F)F)cn1 (centres unmarked) [2-143],100
14,C=CCCOc1cc(C(F)(F)F)ccc1OC1CC2CCC(C1)N2c1ccc(C(F)(F)F)cn1 (centres unmarked) [2-144],100
15,"C=C(C)COc1cc(C(F)(F)F)ccc1OC1CC2CCC(C1)N2c1ccc(C(F)(F)F)cn1 (stereo not drawn) [2-147, 3α-[2-(2-methylallyloxy)-4-(trifluoromethyl)phenoxy]-8-[5-(trifluoromethyl)-2-pyridyl]-8-azabicyclo[3.2.1]octane]",100
16,CC(C)(C)C(=O)Oc1cc(C(F)(F)F)ccc1OC1CC2CCC(C1)N2c1ccc(C(F)(F)F)cn1 (centres unmarked) [2-150],100
17,CS(=O)(=O)Oc1cc(C(F)(F)F)ccc1OC1CC2CCC(C1)N2c1ccc(C(F)(F)F)cn1 (centres unmarked) [2-151],100
18,CCS(=O)(=O)Oc1cc(C(F)(F)F)ccc1OC1CC2CCC(C1)N2c1ccc(C(F)(F)F)cn1 (centres unmarked) [2-152],100
19,CN(C)S(=O)(=O)Oc1cc(C(F)(F)F)ccc1OC1CC2CCC(C1)N2c1ccc(C(F)(F)F)cn1 (centres unmarked) [2-155],100
20,CN(C)C(=O)Sc1cc(C(F)(F)F)ccc1OC1CC2CCC(C1)N2c1ccc(C(F)(F)F)cn1 (centres unmarked) [2-157],100
21,CCCN(CCC)c1cc(C(F)(F)F)ccc1OC1CC2CCC(C1)N2c1ccc(C(F)(F)F)cn1 (centres unmarked) [2-159],100
22,CCCNc1cc(C(F)(F)F)ccc1OC1CC2CCC(C1)N2c1ccc(C(F)(F)F)cn1 (centres unmarked) [2-160],100
